Among the data in ChEMBL document CHEMBL1158844, “Two new isoflavones from Ceiba pentandra and their effect on cyclooxygenase-catalyzed prostaglandin biosynthesis” (J Nat Prod, 1998) are IC50 values, retold here.

Assay [1] has as its target T1, Prostaglandin G/H synthase 2 (Ovis aries, UniProt P79208).
T1 sequence (P79208 whole entry): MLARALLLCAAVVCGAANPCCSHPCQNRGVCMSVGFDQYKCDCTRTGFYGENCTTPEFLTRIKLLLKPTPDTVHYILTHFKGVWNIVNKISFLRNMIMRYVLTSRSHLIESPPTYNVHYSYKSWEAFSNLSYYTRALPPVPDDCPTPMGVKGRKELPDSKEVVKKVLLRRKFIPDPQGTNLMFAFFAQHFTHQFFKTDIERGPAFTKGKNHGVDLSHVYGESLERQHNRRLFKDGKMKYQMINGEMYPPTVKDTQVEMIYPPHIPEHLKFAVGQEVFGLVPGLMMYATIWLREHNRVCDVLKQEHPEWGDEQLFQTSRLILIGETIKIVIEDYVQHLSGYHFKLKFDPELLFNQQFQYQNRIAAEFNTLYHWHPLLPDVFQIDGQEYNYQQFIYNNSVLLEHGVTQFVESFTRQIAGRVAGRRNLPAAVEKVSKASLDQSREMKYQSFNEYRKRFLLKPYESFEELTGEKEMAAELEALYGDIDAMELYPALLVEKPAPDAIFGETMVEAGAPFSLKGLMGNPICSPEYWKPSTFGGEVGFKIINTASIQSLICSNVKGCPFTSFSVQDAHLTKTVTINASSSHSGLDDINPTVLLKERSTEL
Nature of the assay: Inhibition of sheep placental cotyledons COX2-mediated prostaglandin production.

Assay [2] has as its target T2, Prostaglandin G/H synthase 1 (Bos taurus, UniProt O62664).
T2 sequence (O62664 whole entry): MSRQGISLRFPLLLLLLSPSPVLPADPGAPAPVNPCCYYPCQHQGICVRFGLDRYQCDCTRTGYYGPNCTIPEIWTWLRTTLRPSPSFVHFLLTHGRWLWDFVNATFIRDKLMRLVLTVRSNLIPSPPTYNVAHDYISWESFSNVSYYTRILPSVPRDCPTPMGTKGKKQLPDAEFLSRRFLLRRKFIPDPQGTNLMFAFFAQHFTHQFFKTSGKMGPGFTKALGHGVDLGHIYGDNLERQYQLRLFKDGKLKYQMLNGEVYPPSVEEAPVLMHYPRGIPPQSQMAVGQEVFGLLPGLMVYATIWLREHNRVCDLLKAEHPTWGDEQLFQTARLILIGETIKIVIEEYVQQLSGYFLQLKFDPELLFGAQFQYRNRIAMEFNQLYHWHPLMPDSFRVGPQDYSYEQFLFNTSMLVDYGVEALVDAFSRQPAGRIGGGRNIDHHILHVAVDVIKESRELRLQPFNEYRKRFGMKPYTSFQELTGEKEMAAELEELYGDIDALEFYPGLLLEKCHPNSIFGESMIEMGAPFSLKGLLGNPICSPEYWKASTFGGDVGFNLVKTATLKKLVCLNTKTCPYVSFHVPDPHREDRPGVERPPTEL
Nature of the assay: Inhibition of bovine seminal vesicle microsomal COX1-mediated prostaglandin production. Type of assay: microsomes.

Molecules are shown by their SMILES.

For `COc1cc(O)c2c(=O)c(-c3cc(O)c(OC)c(OC)c3)coc2c1`, the concentration for half-maximal inhibition (IC50) (commonly the concentration at which inhibition is half-maximal) in assay [1] is 900 µM; in assay [2] it was 97 µM.
Turning to `Oc1cc(O)c2c(c1)O[C@H](c1ccc(O)c(O)c1)[C@@H](O)C2` [CIANIDANOL], the IC50 in assay [2] amounted to 80 µM. That is a double-digit micromolar value.
Turning to `COc1cc(O)c2c(=O)c(-c3cc(OC)c(OC)c(O[C@@H]4O[C@H](CO)[C@@H](O)[C@H](O)[C@H]4O)c3)coc2c1`, the IC50 in assay [1] worked out at 1200 µM; in assay [2] it was 381 µM.
